From BindingDB's records for patent US12440494 (Albert Einstein College of Medicine, 2025)

Target: Serine/threonine-protein kinase B-raf [V600E] (Homo sapiens, UniProt P15056, V600E)
Experiment: Kinase Activity Assay
Protocol: BRAF kinase assays were performed using the Z′-LYTE™ enzymatic assay (Invitrogen, USA). […] Titrations were performed using a 1:3 dilution. Assays were performed using Select Screen (Invitrogen).

Sequence of Serine/threonine-protein kinase B-raf [V600E] (P15056 2-766 V600E limits assumed): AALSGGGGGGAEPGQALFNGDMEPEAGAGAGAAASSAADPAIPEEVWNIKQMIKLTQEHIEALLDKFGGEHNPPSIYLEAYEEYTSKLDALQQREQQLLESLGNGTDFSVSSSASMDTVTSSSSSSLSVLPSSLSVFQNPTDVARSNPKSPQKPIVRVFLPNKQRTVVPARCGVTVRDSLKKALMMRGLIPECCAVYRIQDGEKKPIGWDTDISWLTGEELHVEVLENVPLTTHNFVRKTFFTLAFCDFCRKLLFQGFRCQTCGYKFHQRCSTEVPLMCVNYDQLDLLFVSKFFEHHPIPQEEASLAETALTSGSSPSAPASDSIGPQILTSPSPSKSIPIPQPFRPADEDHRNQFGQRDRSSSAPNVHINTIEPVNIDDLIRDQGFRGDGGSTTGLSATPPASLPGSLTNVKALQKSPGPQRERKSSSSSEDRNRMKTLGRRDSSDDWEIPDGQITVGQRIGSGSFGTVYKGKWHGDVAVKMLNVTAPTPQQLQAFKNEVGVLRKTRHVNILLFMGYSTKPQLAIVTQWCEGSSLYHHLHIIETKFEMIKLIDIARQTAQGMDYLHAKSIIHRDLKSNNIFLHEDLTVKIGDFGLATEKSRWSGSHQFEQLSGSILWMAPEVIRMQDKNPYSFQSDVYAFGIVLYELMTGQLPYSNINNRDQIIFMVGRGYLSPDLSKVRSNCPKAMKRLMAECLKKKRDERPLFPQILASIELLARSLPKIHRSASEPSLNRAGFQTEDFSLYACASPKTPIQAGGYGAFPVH

IC50: 17.8 nM
SMILES: COC(=O)N1CCN(CCNCc2ccc(NC(=O)c3ccc(C)c(C#Cc4cnc5cccnn45)c3)cc2C(F)(F)F)CC1 [US12440494, Compound 2]
